Test results from patent US20160184201A1, “ANTIPERSPIRANT/DEODORANT COMPOSITIONS” (COLGATE-PALMOLIVE COMPANY, priority 2013, published 2016).

System: Staphyloccus haemolyticus
Experiment: Antimicrobial activity: minimum inhibition concentration by two-fold serial dilution in a 96-well plate (optical density, confirmed by agar streak)
Type: cell-based
Settings: for bacterial growth in the first well of the 96-well plate: 1% L-Lactide solution
Description: 1. Formulate a 1% or 10000 ppm and 3% or 30000 ppm solution of the neat L-Lactide active tested by weight and vortex until homogeneous in a 50 mL centrifuge tube. 2. Place solutions in shaking incubator at 200 rpm and 37° C. for 1 hour. 3. Repeat the formulation of the solution and shaking incubation for 4 hour and 24 hour time points. 4. Label 96-well plate to indicate positive and negative controls and the active tested against an odor causing bacteria, Staphyloccus haemolyticus. 5. Using a 96-well plate, pipette 100 uL of Tryptic Soy Broth (TSB) into all of the wells. 6. In the first well, add 100 uL of the active solution or desired solvent for positive and negative controls to achieve a total of 200 uL in the first column of wells. 7. Set the multi-channel pipette to 100 uL and begin mixing the contents in the first column of wells and transfer 100 uL of the mixture into each successive well creating two-fold serial dilutions. 8. Repeat until the 12th column is reached making sure to dispose the 100 uL from the last well leaving 100 uL in all of the wells. 9. In the negative control wells add 100 uL of Phosphate Buffered Saline (PBS). Add 100 uL of bacteria (optical density equals to 0.1) to all other wells. 10. Incubate 96-well plate overnight at 37° C. or at room temperature for 48 hours. 11. Minimum inhibition concentration of the sample is determined by measuring the optical density of the 96 plate.

CC1OC(=O)C(C)OC1=O [L-Lactide, 3,6-dimethyl-1,4-dioxane-2,5-dione]
bacterial growth in the first well of the 96-well plate (1 hour of shaking incubation (200 rpm, 37° C.), first well, 4-fold dilution of the sample): some bacterial growth | bacterial growth in the first well of the 96-well plate (4 hours of incubation, same first well, 4-fold dilution): complete bacteria kill | bacterial growth in wells 1 and 2 of the 96-well plate (3% L-Lactide solution, 1 hour of shaking incubation, dilution factor 4 and 8 fold): no bacterial growth | bacterial growth in the third well of the 96-well plate (3% L-Lactide solution, 24 hours of shaking incubation, third well, dilution 16 fold): bacteria growth is prevented
